Measurements: paper PMC2713499 (Biochemistry, 2009)

System: PC-3-Bcl-2 prostate cancer cells
Test: In vitro cytotoxicity assay
Assay type: cell-based, Human
Details: for cytotoxic effects: up to 100,000 nM, PC-3-Bcl-2, in words; for cytotoxic effects / inhibition of proliferation and viability compared to control: 96 h; for inhibition of proliferation and viability compared to control / % surviving fraction compared to mock: MTT, PC-3-Bcl-2; for % surviving fraction compared to mock: 96 hours

Row | Compound | cytotoxic effects | inhibition of proliferation and viability compared to control (0.1 mM) [%] | % surviving fraction compared to mock (0.1 mM) [%] | inhibition of proliferation and viability compared to control (0.01 mM) [%]
1 | CC(=O)Nc1nnc(S(N)(=O)=O)s1 [AZM, N-(5-(aminosulfonyl)-1,3,4-thiadiazol-2-yl)-acetamide] | no cytotoxic effects | – | – | –
2 | NS(=O)(=O)c1nnc(NS(=O)(=O)c2ccccc2)s1 [BZM, 1,3,4-Thiadiazole-2-sulfonamide, 5-((phenylsulfonyl)amino)] | no cytotoxic effects | – | – | –
3 | NS(=O)(=O)c1nnc(-c2ccccc2Cl)s1 [CHL, 5-[o-chlorophenyl]-1,3,4-thiadiazole-2-sulfonamide] | – | 57 | 43 | –
4 | CCOc1ccc2nc(S(N)(=O)=O)sc2c1 [EZM, 6-ethoxybenzothiazole-2-sulfonamide] | no cytotoxic effects | – | – | –
5 | CC(=O)/N=c1/sc(S(N)(=O)=O)nn1C [MZM, N-(3-methyl-5-sulfamoyl-3H-1,3,4-thiadiazol-2-ylidene)] | – | 32 | 68 | 29
